6 compounds from ChEMBL document CHEMBL1201862, “PubChem BioAssay data set” (2004) can be followed below.

Among the test systems are BT-549; COLO 205; HCC 2998; HOP-92; MDA-MB-231; MDA-MB-435; Malme-3M; OVCAR-5; SF-268; SK-OV-3; SNB-19; SW-620; T47D; UO-31; DMS-114; DMS-273; KM-20L2.
Holding throughout (test): NCI-60 cell line screen, 48 h

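Protocol summary: plate cells (96-well), add compound at 5 concentrations, incubate 48 h, interpolate endpoints linearly. GI50 marks 50% less growth.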 Active and inactive are the calls of the source. No stated cut-off is given here; in the data, active = GI50 up to about 1.1 µM and inactive = higher. Where only a bound is given, the exact number is not on record here.

Turning to `Cc1cccc(C)c1NC(=O)Nc1ccc(S(N)(=O)=O)cc1`, the GI50 in the assay on BT-549, in the assay on COLO 205, in the assay on HCC 2998, in the assay with HOP-92, with MDA-MB-231 and in the assay with MDA-MB-435 was > 100 µM (inactive) in each case. Besides, the GI50 with Malme-3M, in the assay with OVCAR-5, with SF-268, in the assay on SK-OV-3, with SNB-19 and in the assay with SW-620 was > 100 µM (inactive) in each case. Besides, the GI50 in the assay on T47D and in the assay with UO-31 was > 100 µM (inactive) throughout.

As for `COc1c2c(cc3c(CCc4ccccc4)cc(=O)oc13)CCC(C)(C)O2`, the GI50 was > 100 µM (inactive) in the assay with COLO 205; > 100 µM (inactive) with DMS-114; > 100 µM (inactive) with DMS-273; > 100 µM (inactive) with HCC 2998; 2.34 µM (inactive) in the assay with HOP-92; > 100 µM (inactive) in the assay with KM-20L2. Besides, the GI50 in the assay with Malme-3M, with OVCAR-5, in the assay on SF-268, in the assay with SK-OV-3, in the assay with SW-620 and with UO-31 was > 100 µM (inactive) in each case.

As for `O=C1C=C/C(=C/[C@H]2SSC=C[C@]23C=CC(=O)C3)C1`, the GI50 was 18.9 µM (inactive) in the assay on BT-549; 13 µM (inactive) in the assay on COLO 205; 20.6 µM (inactive) in the assay on HCC 2998; 20.6 µM (inactive) with HOP-92; 28.1 µM (inactive) in the assay with MDA-MB-231; 17.7 µM (inactive) in the assay on MDA-MB-435. Also, the GI50 was 16.9 µM (inactive) with Malme-3M; 13 µM (inactive) in the assay with OVCAR-5; 26.5 µM (inactive) with SF-268; 49.7 µM (inactive) in the assay with SK-OV-3; 36.1 µM (inactive) with SNB-19; 11.9 µM (inactive) with SW-620. In addition, the results for the GI50 in the assay on T47D and in the assay on UO-31 were 36.1 µM (inactive) and 14.8 µM (inactive), respectively.

As for `CC[C@H]1CN2CCc3cc(OC)c(OC)cc3[C@@H]2C[C@@H]1C[C@H]1NCCc2cc(O)c(OC)cc21`, the GI50 is 0.025 µM (active) in the assay with DMS-114; 0.0344 µM (active) in the assay with DMS-273; 0.0261 µM (active) with HCC 2998; 0.025 µM (active) in the assay with KM-20L2; 0.0809 µM (active) in the assay with Malme-3M; 0.25 µM (active) in the assay with OVCAR-5. The GI50 is 0.0557 µM (active) with SF-268; 0.0562 µM (active) with SK-OV-3; 0.025 µM (active) in the assay on SNB-19; 0.025 µM (active) in the assay on SW-620; 0.146 µM (active) in the assay on UO-31.

In the case of `O=C(O)C(F)(F)C(F)(F)C(F)(F)C(F)(F)C(F)(F)C(F)(F)C(F)(F)C(F)(F)F`, the GI50 in the assay on BT-549 was 49.1 µM (inactive); in the assay with COLO 205 it was 48.5 µM (inactive); in the assay on HCC 2998, 86.9 µM (inactive); with HOP-92 it was 24.9 µM (inactive); with MDA-MB-231, 46.2 µM (inactive); in the assay on MDA-MB-435, 48.3 µM (inactive). For the same compound, the GI50 in the assay with Malme-3M is > 100 µM (inactive); in the assay on OVCAR-5 it was 33.3 µM (inactive); in the assay with SF-268, 54.7 µM (inactive); in the assay with SK-OV-3 it was 29.6 µM (inactive); in the assay on SNB-19, 39.6 µM (inactive); in the assay on SW-620, 52.5 µM (inactive). Also, the GI50 with T47D is 57.3 µM (inactive); in the assay on UO-31, 47.5 µM (inactive).

Consider `O=C(O)C(O)Cc1ccccn1` (centres undefined), for which the GI50 in the assay with BT-549, in the assay on COLO 205, in the assay with HCC 2998, with HOP-92, with MDA-MB-231 and with MDA-MB-435 was > 100 µM (inactive) each time. The GI50 in the assay with Malme-3M, in the assay with OVCAR-5, with SF-268, with SK-OV-3, in the assay with SNB-19 and in the assay with SW-620 was > 100 µM (inactive) throughout. The GI50 with T47D and with UO-31 was > 100 µM (inactive) throughout.
